Assay results from article PMC9367672, “In vitro differences in toddalolactone metabolism in various species and its effect on cytochrome P450 expression” (Pharmaceutical Biology, 2022).

Experiments:
other rhCYP isoforms = experiment: Reaction phenotyping with the other recombinant human CYP isoforms; format: in vitro ADME; settings: other rhCYP isoforms (of thirteen), 15 nM, 37 °C, 60 min
Procedure: (§1) The CYP reaction system (200 μL) consisted of 0.1 M potassium phosphate buffer (pH 7.4), an NADPH-generating system (1 mM NADPH, 10 mM G-6-P, 1 unit/mL G-6-PD, 4 mM MgCl2), and liver microsomes or recombinant human microsomes (supersomes). Each of the in vitro enzymatic assays using liver microsomes was linear with respect to incubation time and amount of protein. After a pre-incubation at 37 °C for 3 min, the reactions were initiated by adding NADP^+. After incubating for 60 min, the reactions were quenched by adding 200 μL of ice-cold acetonitrile. Samples were centrifuged at 18,000 g for 15 min at 4 °C and 10 μL of supernatant was analyzed using an HPLC system. NADPH or CYP enzyme sources were not used in the control group to ensure that the metabolic reactions were CYP- and NADPH-dependent. All incubation assays were completed in triplicate. The data are presented as mean ± standard deviation (SD).
Thirteen cDNA-expressed human CYP isoforms (CYP1A1, CYP1A2, CYP2A6, CYP2B6, CYP2C8, CYP3A4, CYP2C19, CYP3A5, CYP1B1, CYP2C9, CYP2D6, CYP2E1 and CYP4F2) were used to identify the isoform(s) involved in the biotransformation of toddalolactone. Toddalolactone (10 μM) was incubated with each recombinant CYP (15 nM) for 60 min at 37 °C and metabolites were identified by HPLC.

CYP3A5 = CYP3A5 (Homo sapiens, UniProt P20815); experiment: Enzyme kinetics of toddalolactone metabolism by recombinant CYP3A5; settings: P4 formation
CYP3A5, sequence (P20815 whole entry): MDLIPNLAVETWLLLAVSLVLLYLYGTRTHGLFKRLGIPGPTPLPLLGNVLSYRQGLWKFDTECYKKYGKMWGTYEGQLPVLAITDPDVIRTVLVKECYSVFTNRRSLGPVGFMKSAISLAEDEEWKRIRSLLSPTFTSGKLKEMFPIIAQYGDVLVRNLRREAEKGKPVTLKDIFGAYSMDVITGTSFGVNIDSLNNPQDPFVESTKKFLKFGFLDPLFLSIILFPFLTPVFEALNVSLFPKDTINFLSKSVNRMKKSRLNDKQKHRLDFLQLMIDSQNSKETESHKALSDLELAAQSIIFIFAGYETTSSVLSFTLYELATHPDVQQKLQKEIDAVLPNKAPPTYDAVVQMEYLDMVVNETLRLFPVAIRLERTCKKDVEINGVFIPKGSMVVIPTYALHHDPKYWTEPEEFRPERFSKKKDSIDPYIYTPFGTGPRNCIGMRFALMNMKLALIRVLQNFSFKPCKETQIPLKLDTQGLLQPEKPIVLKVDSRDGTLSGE
Procedure: The enzyme kinetics of toddalolactone in oxidative metabolism and glucuronidation were determined by incubating liver microsomes (0.2 mg/mL) or CYPs (15 nM) with different concentrations of toddalolactone (1–200 μM). The kinetic parameters including Km and Vmax were obtained by fitting the experimental data to the Michaelis–Menten equation (Equation (1)), biphasic kinetics equation (Equation (2)), or substrate inhibition equation (Equation (3)) (He et al. [2018]), and the results were graphically represented on Eadie–Hofstee plots. The in vitro intrinsic clearance (CLint) was calculated based on the Vmax/Km ratio. Metabolites were quantified using the standard curve for toddalolactone because of the absence of metabolite standards. All incubations were repeated in three independent experiments. Kinetic constants were expressed with mean ± SD: (1) V=Vmax×[S]/Km+[S] (2) V=Vmax1×[S]/Ks1+[S]+Vmax2×[S]/Ks2+[S] […]

CYP1A1 = experiment: Western blot of CYP1A1 protein expression in HepG2 cells; format: cell-based; settings: 50 μM, 24 h, vs control (0 μM), p < 0.05
Procedure: Hep G2 cells were seeded into 100 mm Petri dishes and treated with different concentrations of toddalolactone (0, 10 and 50 µmol/L) for 24 h. Total protein was extracted using RIPA lysis buffer containing proteinase inhibitor (BestBio, Shanghai, China). After the protein concentration was measured using a bicinchoninic acid (BCA) assay kit (Beyotime, Shanghai, China), samples were electrophoretically transferred to polyvinylidene difluoride (PVDF) membranes. After blocking with TTBS (0.5% Tween 20, 10 mM Tris-HCl, pH 7.5, 150 mM NaCl) containing 5% non-fat milk for 1 h at room temperature, the membrane was incubated with antibodies against β-Actin, CYP1A1, and CYP3A5 overnight at 4 °C. Then, membranes were washed with TBS (10 mM Tris-HCl, pH 7.5, 150 mM NaCl) containing 0.05% Tween 20 three times and further incubated with HRP-conjugated secondary antibodies against rabbit (for β-actin, CYP1A1 and CYP3A5) for 1 h at room temperature.

[1] = Enzyme kinetics of toddalolactone metabolism in mini pig liver microsomes (oxidative metabolism and glucuronidation); format: in vitro ADME; settings: pig, Vmax/Km
Procedure: as §1
(§2) In the UGT reaction system, liver microsomes were incubated in 200 μL of the reaction system containing 4 mM UDPGA, 5 mM MgCl2, 20 µg/mL alamethicin, and 50 mM Tris-HCl buffer (pH 7.4). After pre-incubation at 37 °C for 3 min, UDPGA was added to the mixture to initiate the reactions. The mixtures were incubated at 37 °C for 60 min, followed by the addition of 200 μL of cold methanol to terminate the reactions. After centrifugation at 18,000 g for 15 min, 10 μL of the supernatant was analyzed by HPLC.
(§3) The enzyme kinetics of toddalolactone in oxidative metabolism and glucuronidation were determined by incubating liver microsomes (0.2 mg/mL) or CYPs (15 nM) with different concentrations of toddalolactone (1–200 μM). The kinetic parameters including Km and Vmax were obtained by fitting the experimental data to the Michaelis–Menten equation (Equation (1)), biphasic kinetics equation (Equation (2)), or substrate inhibition equation (Equation (3)) (He et al. [2018]), and the results were graphically represented on Eadie–Hofstee plots. The in vitro intrinsic clearance (CLint) was calculated based on the Vmax/Km ratio. Metabolites were quantified using the standard curve for toddalolactone because of the absence of metabolite standards. All incubations were repeated in three independent experiments. Kinetic constants were expressed with mean ± SD: (1) V=Vmax×[S]/Km+[S] (2) V=Vmax1×[S]/Ks1+[S]+Vmax2×[S]/Ks2+[S] (3) V=Vmax×[S]/Ks+[S]+[S]^2/Ksi where v is the rate of reaction, Vmax is the estimated maximum velocity, [S] is the substrate concentration, and Km is the affinity constant of the substrate; Vmax1 and Vmax2 represent the estimated maximum velocity of the two metabolic phases; Ks1 and Ks2 represent the affinity constants for two metabolic phases; Ks and Ksi are the substrate affinity and inhibition constants, respectively.
(§4) The enzyme kinetics in oxidative metabolism and glucuronidation of toddalolactone were studied, and preliminary experiments were performed to ensure that metabolites were formed in the linear range of both reaction time and microsomal protein concentration. The metabolite with the largest peak area was used to calculate the kinetic parameter values (Km, Vmax and CLint). Based on the results of toddalolactone metabolism in different species, the kinetic parameter values in RLMs, DLMs, MLMs, HLMs, RAMs, MIMs, PLMs, CYP1A1 and CYP3A5 were calculated using P4, P4, P4, P4, P2, P2, P4, P4 and P4 data in oxidative metabolism, respectively. In the glucuronidation reaction, the kinetic parameter values in RLMs, MLMs, HLMs, RAMs and PLMs were calculated using P5, P6, P6, P6 and P5 data, respectively.

PLMs = experiment: as above; format: in vitro ADME; settings: for V max: toddalolactone 1–200 μM
Procedure: as §1, §2, §3, §4

[2] = P450-catalyzed oxidation, P4 formation
[3] = glucuronide metabolism, P5 formation

## COc1cc2oc(=O)ccc2c(OC)c1C[C@@H](O)C(C)(C)O [toddalolactone]
Other rhCYP isoforms
  catalysis of toddalolactone metabolism by rhCYP isoform: very limited or even no catalytic activity
CYP3A5; recombinant CYP3A5 (15 nM)
  K m: 50.34 ± 8.62 µM
CYP3A5; recombinant CYP3A5, Vmax/Km
  CLint: 0.013 µL/min/nmol CYP
CYP1A1
  induction of CYP1A1 protein expression higher than that of the control: approximately 50%
[1]; liver microsomes, pH 7.4, PLMs, P450-catalyzed oxidation, P4 formation
  microsomal CLint: 0.69 µL/min/mg
[1]; mini pig liver microsomes (PLMs), UGT reaction system, pH 7.4, glucuronide metabolism, P5 formation
  microsomal CLint: 0.36 µL/min/mg
PLMs; [2]
  K m: 135.36 ± 32.39 µM
  V max: 94.24 ± 11.61 pmol/min/mg protein
PLMs; [3]
  K m: 93.28 ± 22.35 µM
  V max: 34.12 ± 3.62 pmol/min/mg protein
